Patent US10221197B2, “Phosphatidylinositol 3-kinase inhibitors” (Gilead Sciences, Inc., priority 2014, dated 2019)

Legend:
Format in all cases: biochemical
[1] = target: PI3Kδ (Homo sapiens (Human), UniProt O00329); assay: TR-FRET enzymatic assay of PI3K isoforms (PI3Kδ); conditions: 2×Km ATP, 2 μM PIP2, incubated for 30 minutes at 25° C., read-out: δ IC50
Method: (§1) The compounds of formula (I) were characterized for their enzymatic activity against the PI3K isoforms. Certain compounds of the present application, including certain compounds of formula (II) and (III) were also characterized for their enzymatic activity against PI3K isoforms. The activities were measured using a time-resolved fluorescence resonance energy transfer (TR-FRET) assay.

[2] = target: PI3Kβ (Homo sapiens (Human), UniProt P42338); assay: TR-FRET enzymatic assay of PI3K isoforms (PI3Kβ); conditions: TR-FRET, 2×Km ATP, 2 μM PIP2, incubated for 30 minutes at 25° C.; read-out: β IC50
Method: as §1

[3] = target: PI3Kγ (Homo sapiens (Human), UniProt P48736); assay: TR-FRET enzymatic assay of PI3K isoforms (PI3Kγ); conditions: TR-FRET, 2×Km ATP, 2 μM PIP2, PI3Kγ at 2 nM, incubated for 30 minutes at 25° C.; read-out: γ IC50
Method: as §1

Chain of PI3Kδ (O00329 whole entry, canonical isoform): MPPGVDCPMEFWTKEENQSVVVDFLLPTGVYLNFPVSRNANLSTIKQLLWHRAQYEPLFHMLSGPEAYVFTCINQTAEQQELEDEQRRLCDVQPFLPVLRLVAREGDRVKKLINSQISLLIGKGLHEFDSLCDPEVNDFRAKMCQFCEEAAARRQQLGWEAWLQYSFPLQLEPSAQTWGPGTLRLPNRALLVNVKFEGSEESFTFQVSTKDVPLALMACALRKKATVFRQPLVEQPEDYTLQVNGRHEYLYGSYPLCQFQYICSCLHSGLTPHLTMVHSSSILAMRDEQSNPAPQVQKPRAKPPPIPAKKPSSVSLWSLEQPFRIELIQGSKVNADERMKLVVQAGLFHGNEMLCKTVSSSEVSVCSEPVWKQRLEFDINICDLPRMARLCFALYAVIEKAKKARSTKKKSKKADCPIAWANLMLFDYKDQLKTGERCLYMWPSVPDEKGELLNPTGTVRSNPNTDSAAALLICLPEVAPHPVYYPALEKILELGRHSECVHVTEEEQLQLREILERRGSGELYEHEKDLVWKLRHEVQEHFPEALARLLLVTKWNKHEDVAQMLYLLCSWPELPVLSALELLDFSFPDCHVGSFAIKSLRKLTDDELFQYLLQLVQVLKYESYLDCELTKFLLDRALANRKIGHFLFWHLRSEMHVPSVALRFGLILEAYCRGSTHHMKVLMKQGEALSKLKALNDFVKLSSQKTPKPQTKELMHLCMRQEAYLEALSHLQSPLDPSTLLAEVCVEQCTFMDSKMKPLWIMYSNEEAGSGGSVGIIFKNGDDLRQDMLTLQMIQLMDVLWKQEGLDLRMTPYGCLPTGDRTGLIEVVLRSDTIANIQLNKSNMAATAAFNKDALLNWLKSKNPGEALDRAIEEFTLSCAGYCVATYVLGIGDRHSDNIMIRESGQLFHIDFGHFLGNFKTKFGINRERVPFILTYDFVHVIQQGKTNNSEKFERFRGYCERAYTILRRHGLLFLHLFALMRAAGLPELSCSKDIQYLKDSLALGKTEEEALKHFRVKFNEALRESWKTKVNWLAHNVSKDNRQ
Chain of PI3Kδ (P27986 whole entry partner, canonical isoform): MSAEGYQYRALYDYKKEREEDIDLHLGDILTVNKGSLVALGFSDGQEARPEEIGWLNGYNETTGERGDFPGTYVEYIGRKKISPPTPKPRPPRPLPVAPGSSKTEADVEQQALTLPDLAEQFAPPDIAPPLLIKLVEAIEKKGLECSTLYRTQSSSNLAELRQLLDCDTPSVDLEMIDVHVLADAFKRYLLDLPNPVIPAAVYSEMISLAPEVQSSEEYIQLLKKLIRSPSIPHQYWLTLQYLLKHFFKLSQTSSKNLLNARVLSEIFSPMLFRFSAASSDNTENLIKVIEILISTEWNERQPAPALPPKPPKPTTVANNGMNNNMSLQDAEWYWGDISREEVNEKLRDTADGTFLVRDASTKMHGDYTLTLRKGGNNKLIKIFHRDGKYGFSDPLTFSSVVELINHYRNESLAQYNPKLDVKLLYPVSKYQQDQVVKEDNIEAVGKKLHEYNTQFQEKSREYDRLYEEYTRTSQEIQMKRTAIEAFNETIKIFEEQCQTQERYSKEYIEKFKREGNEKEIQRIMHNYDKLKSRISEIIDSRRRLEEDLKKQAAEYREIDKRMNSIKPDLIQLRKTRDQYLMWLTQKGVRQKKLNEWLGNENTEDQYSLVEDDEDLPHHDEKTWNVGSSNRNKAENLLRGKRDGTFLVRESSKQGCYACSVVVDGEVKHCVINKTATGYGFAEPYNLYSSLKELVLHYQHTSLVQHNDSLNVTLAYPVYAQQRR
Chain of PI3Kβ (P42338 whole entry, canonical isoform): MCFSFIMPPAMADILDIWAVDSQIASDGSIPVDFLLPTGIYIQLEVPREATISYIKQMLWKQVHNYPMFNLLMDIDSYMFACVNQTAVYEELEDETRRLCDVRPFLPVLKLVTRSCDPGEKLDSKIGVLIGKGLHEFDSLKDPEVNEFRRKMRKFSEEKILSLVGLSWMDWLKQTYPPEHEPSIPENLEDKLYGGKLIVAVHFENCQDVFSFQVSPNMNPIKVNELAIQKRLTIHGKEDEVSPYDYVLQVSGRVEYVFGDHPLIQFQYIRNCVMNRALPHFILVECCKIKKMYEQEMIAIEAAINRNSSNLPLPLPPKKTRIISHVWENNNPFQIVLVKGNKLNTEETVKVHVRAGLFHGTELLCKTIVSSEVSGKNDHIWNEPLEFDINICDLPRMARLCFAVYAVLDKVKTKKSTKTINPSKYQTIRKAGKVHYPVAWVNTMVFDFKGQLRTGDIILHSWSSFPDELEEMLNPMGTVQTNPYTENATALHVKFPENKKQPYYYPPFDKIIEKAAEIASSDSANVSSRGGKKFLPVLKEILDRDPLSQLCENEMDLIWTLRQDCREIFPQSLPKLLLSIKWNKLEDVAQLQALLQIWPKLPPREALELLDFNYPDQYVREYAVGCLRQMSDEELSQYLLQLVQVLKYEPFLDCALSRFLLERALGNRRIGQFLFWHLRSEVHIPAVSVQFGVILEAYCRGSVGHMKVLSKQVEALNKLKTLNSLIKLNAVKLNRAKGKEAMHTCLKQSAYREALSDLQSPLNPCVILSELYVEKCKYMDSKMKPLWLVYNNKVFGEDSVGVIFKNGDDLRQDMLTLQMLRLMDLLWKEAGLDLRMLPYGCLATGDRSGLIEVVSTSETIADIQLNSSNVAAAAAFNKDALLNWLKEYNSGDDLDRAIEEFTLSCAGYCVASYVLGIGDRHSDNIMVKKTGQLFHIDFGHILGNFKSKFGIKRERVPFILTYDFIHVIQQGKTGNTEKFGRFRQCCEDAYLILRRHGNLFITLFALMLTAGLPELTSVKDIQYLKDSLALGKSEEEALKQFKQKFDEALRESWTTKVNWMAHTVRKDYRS
Chain of PI3Kβ (P27986 whole entry partner, canonical isoform): as the sequence (P27986 whole entry partner, canonical isoform) above
Chain of PI3Kγ (P48736 whole entry, canonical isoform): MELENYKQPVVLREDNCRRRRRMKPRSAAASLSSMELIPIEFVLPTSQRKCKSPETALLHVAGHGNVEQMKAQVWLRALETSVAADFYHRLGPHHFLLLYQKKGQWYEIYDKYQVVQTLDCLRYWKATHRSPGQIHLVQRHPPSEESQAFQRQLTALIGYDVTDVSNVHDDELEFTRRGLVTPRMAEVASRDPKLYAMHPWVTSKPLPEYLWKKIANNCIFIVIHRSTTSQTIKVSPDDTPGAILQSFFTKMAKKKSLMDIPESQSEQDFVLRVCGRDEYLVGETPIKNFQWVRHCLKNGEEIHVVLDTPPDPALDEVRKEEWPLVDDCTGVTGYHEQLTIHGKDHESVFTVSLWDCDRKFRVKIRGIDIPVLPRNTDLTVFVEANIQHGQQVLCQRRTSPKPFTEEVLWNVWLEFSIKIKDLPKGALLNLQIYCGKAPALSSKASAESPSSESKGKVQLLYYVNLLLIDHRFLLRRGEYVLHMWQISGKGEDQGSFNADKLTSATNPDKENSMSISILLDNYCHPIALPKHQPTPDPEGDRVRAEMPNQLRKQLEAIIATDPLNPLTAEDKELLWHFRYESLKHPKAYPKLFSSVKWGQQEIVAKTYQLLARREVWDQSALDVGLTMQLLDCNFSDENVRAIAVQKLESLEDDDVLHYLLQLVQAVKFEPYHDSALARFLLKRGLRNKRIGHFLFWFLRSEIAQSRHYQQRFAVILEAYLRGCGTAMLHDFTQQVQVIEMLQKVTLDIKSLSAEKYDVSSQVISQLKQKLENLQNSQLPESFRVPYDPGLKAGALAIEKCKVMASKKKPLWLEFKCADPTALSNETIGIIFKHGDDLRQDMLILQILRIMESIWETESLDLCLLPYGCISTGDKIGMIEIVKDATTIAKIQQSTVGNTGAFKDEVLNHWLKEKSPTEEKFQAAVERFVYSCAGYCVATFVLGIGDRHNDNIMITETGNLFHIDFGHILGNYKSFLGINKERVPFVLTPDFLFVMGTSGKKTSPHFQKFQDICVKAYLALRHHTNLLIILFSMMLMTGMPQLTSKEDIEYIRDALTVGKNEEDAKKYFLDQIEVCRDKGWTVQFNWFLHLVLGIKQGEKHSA
Chain of PI3Kγ (Q8WYR1 whole entry partner, canonical isoform): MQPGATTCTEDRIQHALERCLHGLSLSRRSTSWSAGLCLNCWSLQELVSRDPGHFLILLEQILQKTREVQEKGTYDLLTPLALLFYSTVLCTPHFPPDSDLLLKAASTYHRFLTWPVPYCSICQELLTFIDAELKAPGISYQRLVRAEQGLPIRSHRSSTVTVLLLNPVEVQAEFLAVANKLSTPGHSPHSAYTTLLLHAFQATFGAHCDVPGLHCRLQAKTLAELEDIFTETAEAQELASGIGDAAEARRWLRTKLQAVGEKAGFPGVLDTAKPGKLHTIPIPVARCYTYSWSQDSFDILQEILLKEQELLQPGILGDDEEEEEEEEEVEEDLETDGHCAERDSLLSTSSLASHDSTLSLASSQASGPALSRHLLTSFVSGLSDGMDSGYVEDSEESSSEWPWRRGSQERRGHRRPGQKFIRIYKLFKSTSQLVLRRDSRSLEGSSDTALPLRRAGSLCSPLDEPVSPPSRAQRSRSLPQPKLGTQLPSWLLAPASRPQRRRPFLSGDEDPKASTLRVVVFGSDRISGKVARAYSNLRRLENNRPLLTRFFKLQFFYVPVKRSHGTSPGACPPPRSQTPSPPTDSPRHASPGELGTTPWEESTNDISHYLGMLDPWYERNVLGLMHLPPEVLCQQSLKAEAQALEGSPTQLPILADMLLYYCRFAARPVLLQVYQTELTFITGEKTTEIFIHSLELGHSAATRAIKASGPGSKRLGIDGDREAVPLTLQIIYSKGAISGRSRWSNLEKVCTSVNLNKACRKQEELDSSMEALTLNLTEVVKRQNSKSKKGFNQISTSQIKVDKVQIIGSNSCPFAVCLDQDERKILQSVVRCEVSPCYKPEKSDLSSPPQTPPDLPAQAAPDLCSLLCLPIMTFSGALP

SMILES | IC50 [1] [nM] | IC50 [2] [nM] | IC50 [3] [nM]
CC(Oc1ncnc2scnc12)c1nc2cccc(Cl)c2c(=O)n1-c1cccc(NC(=O)NCC(F)(F)F)c1 (stereo not drawn) [Compound 154, 1-(3-(5-chloro-4-oxo-2-(1-(thiazolo[5,4-d]pyrimidin-7-yloxy)ethyl)quinazolin-3(4H)-yl)phenyl)-3-(2,2,2-trifluoroethyl)urea] | 5 | 4 | 1400
CC(Oc1ncnc2scnc12)c1nc2cccc(Cl)c2c(=O)n1-c1cccc(NC(=O)Nc2ccccc2Cl)c1 (stereo not drawn) [Compound 156, 1-(3-(5-chloro-4-oxo-2-(1-(thiazolo[5,4-d]pyrimidin-7-yloxy)ethyl)quinazolin-3(4H)-yl)phenyl)-3-(2-chlorophenyl)urea] | 2 | 41 | 930
C[C@H](Oc1ncnc2scnc12)c1nc2cccc(Cl)c2c(=O)n1-c1cccc(NC(=O)NCC2OCCO2)c1 [Compound 157, (S)-1-((1,3-dioxolan-2-yl)methyl)-3-(3-(5-chloro-4-oxo-2-(1-(thiazolo[5,4-d]pyrimidin-7-yloxy)ethyl)quinazolin-3(4H)-yl)phenyl)urea] | 7 | 25 | 3100
C[C@H](Oc1ncnc2scnc12)c1nc2cccc(Cl)c2c(=O)n1-c1cccc(NC(=O)NCCO)c1 [Compound 158, (S)-1-(3-(5-chloro-4-oxo-2-(1-(thiazolo[5,4-d]pyrimidin-7-yloxy)ethyl)quinazolin-3(4H)-yl)phenyl)-3-(2-hydroxyethyl)urea] | 4 | 9 | 900
N#Cc1c(N)ncnc1N1CCC[C@H]1c1nc2cccc(Cl)c2c(=O)n1-c1cccc(NC(=O)NCC(F)(F)F)c1 [Compound 159, (S)-1-(3-(2-(1-(6-amino-5-cyanopyrimidin-4-yl)pyrrolidin-2-yl)-5-chloro-4-oxoquinazolin-3(4H)-yl)phenyl)-3-(2,2,2-trifluoroethyl)urea] | 33 | 42 | 5600
NC(=O)c1cc(F)cc(-n2c([C@@H](Nc3ncnc(N)c3Cl)C3CC3)nc3cccc(Cl)c3c2=O)c1 [Compound 160, (S)-3-(2-(((6-amino-5-chloropyrimidin-4-yl)amino)(cyclopropyl)methyl)-5-chloro-4-oxoquinazolin-3(4H)-yl)-5-fluorobenzamide] | 66 | 2400 | > 10000
N#Cc1c(N)nc(N)nc1N[C@H](c1nc2cccc(Cl)c2c(=O)n1-c1cc(F)cc(C(N)=O)c1)C1CC1 [Compound 161, (S)-3-(5-chloro-2-(cyclopropyl((2,6-diamino-5-cyanopyrimidin-4-yl)amino)methyl)-4-oxoquinazolin-3(4H)-yl)-5-fluorobenzamide] | 1 | 2 | 70
NC(=O)c1cc(F)cc(-n2c([C@@H](Nc3nc(N)nc(N)c3Cl)C3CC3)nc3cccc(Cl)c3c2=O)c1 [Compound 162, (S)-3-(5-chloro-2-(cyclopropyl((2,6-diamino-5-chloropyrimidin-4-yl)amino)methyl)-4-oxoquinazolin-3(4H)-yl)-5-fluorobenzamide] | 1 | 21 | 2600
NC(=O)c1cncc(-n2c([C@@H](Nc3nc(N)nc(N)c3Cl)C3CC3)nc3cccc(Cl)c3c2=O)c1 [Compound 163, (S)-5-(5-chloro-2-(cyclopropyl((2,6-diamino-5-chloropyrimidin-4-yl)amino)methyl)-4-oxoquinazolin-3(4H)-yl)nicotinamide] | 2 | 11 | 8200
N#Cc1c(N)nc(N)nc1N[C@H](c1nc2cccc(Cl)c2c(=O)n1-c1cncc(C(N)=O)c1)C1CC1 [Compound 164, (S)-5-(5-chloro-2-(cyclopropyl((2,6-diamino-5-cyanopyrimidin-4-yl)amino)methyl)-4-oxoquinazolin-3(4H)-yl)nicotinamide] | 1 | 2 | 420
